The values below come from patent publication US20030224403A1 (priority 2002, published 2003).

The test system of series [1] is RAW 264.7 cells. The format is cell-based, mouse.
Series [2] concerns B. anthracis spores. Particulars: in vivo.
Series [3] has as its system RAW 264.7 cells infected with anthrax (Sterne) spores. It is filed as cell-based, mouse.
Series [4] concerns human PBMCs infected with anthrax (Sterne) spores. It is filed as cell-based.
The test system of series [5] is B. anthracis spores. Particulars: in vivo. This is another data set of the same source.
The subject of a further series is anthrax (Sterne) spores. Also on record: species or system B. anthracis.
Series [6] relates to RAW 264.7 cells. The format is cell-based, mouse. This is another data set of the same source.
Series [7] concerns RAW 264.7 cells. The format is cell-based, mouse. Particulars: 4 h.
Series [8] deals with human peripheral blood monocytes / PBMCs. It is filed as cell-based.
The test system of series [9] is RAW 264.7 cells. The format is cell-based, mouse. This is another data set of the same source.
In series [10] the test system is RAW 264.7 cells. It is filed as cell-based, mouse. This is another data set of the same source.
Series [11] concerns Fas expression in RAW 264.7 cells. It is filed as cell-based, mouse.
The conditions of series [12]: mouse, in vivo, ip; cited from earlier work.
Series [13] has as its system RAW 264.7 cells. It is filed as cell-based, mouse. The source holds these as a separate data set.

Several values for one entry are separate records, joined by “and”; a condition that tells them apart may be missing. Equal entries are not always repeated. Entries after “also recorded” stand apart in the source; their conditions may differ. Residues, ends and D or L forms follow the SMILES beside them. *: point of attachment. Cbz = O=C(OCc1ccccc1)*; CH2F = FC*

With `COc1cccc(-c2cc(=O)c3ccccc3o2)c1N` [PD 98059], in the series with RAW 264.7 cells [1], the “antitoxin effect (cell survival, MTT)” value is listed as “did not display an antitoxin effect; also recorded: do not increase cell survival; also recorded: none of these inhibitors increased cell survival”. Take `C[S+]([O-])c1ccc(-c2nc(-c3ccncc3)c(-c3ccc(F)cc3)[nH]2)cc1` (stereo not drawn) [SB 203580]: the “antitoxin effect (cell survival, MTT)” value in the series with RAW 264.7 cells [1] is “not able to decrease the effect of LeTx; also recorded: do not increase cell survival; also recorded: none of these inhibitors increased cell survival”. Take `COC(=O)C[C@H](NC(=O)[C@H](C)NC(=O)[C@@H](NC(=O)OCc1ccccc1)C(C)C)C(=O)CF` [Z-VAD-fmk, benzyloxycarbonyl-Val-Ala-Asp-fluoromethylketone] (Cbz-Val-Ala-Asp(OMe)-CH2F): the “survival of mice” value with B. anthracis spores [2] is given as “dead by 11 days”. Also, in the series on B. anthracis spores [2] (ip), the “mice alive by day 15” value is 20%; the “mice survived by day 15” value was 20% and 10%.

For `CO/C1=C\C(C)=C\[C@@H](C)[C@@H](O)[C@@H](C)C/C(C)=C/C=C/[C@H](OC)[C@@H]([C@@H](C)[C@@H](O)[C@H](C)[C@@]2(O)C[C@@H](O)[C@H](C)[C@@H](C(C)C)O2)OC1=O` [bafilomycin A1], the “survival of mice” value in the series on B. anthracis spores [2] is “dead by 11 days”. As to `CC(C)C[C@H](NC(=O)[C@@H](O)[C@H](N)Cc1ccccc1)C(=O)O` [bestatin], in series [3], the “bactericidal activity of Raw 264.7 cells” value was “restores a bactericidal activity”. For the same molecule, the “killing (bactericidal) activity of human PBMCs” value in [4] was “increased in a concentration dependent manner; also recorded: restores a bactericidal activity”. Besides, in the series on B. anthracis spores [2], the “survival of mice” value was “dead by 11 days”. Also, the “mice dead by day 9” value in the series with B. anthracis spores [5] was “more than 30%”. In addition, the intrinsic antibiotic activity entry with anthrax (Sterne) spores is “undetectable”. On to `CCN(CC)CCCC(C)Nc1ccnc2cc(Cl)ccc12` (stereo not drawn) [chloroquine], for which the “survival of mice” value in the series on B. anthracis spores [2] is listed as “dead by 11 days”.

For the molecule `O=C(O)c1cn(C2CC2)c2cc(N3CCNCC3)c(F)cc2c1=O` [ciprofloxacin], in the series with B. anthracis spores [2], the “mice alive after 11 days” value came out at 100%, the “mice survived at least 14 days” value is on record as 100%, the “protection of mice (FIG. 29)” value is on record as “complete protection” and the “survival (FIG. 29)” value was 10%. In the series on B. anthracis spores [5], the “mice alive after 15 days” value is reported as “approximately 50%” and the “survival of mice by day 12” value is on record as 50%. Turning to `COC(=O)CC[C@H](NC(=O)[C@H](Cc1c[nH]c2ccccc12)NC(=O)OCc1ccccc1)C(=O)N[C@@H](Cc1cnc[nH]1)C(=O)N[C@@H](CC(=O)OC)C(=O)CF` [inhibitor of caspase 1, Z-WEHD-FMK] (Cbz-WE(OMe)HD(OMe)-CH2F), the “protection of cells against LeTx (membrane permeability staining)” value (shortened to “protection of cells against LeTx”) in the series with RAW 264.7 cells [6] is “different degree of protection”. With `COC(=O)C[C@H](NC(=O)[C@H](C)NC(=O)[C@@H](NC(=O)[C@H](CC(=O)OC)NC(=O)[C@@H](NC(=O)OCc1ccccc1)C(C)C)C(C)C)C(=O)CF` [inhibitor of caspase 2, Z-VDVAD-FMK] (Cbz-VD(OMe)VAD(OMe)-CH2F), the “protection of cells against LeTx” value in the series with RAW 264.7 cells [6] is on record as “different degree of protection”. Still for that read-out and setting: in the case of `COC(=O)CC[C@H](NC(=O)[C@H](CC(=O)OC)NC(=O)OCc1ccccc1)C(=O)N[C@H](C(=O)N[C@@H](CC(=O)OC)C(=O)CF)C(C)C` [inhibitor of caspase 3, Z-DEVD-FMK] it was “different degree of protection”. With `CC[C@H](C)[C@H](NC(=O)[C@H](CCC(=O)OC)NC(=O)[C@@H](NC(=O)OCc1ccccc1)C(C)C)C(=O)N[C@@H](CC(=O)OC)C(=O)CF` [inhibitor of caspase 6, Z-VEID-FMK] (Cbz-VE(OMe)ID(OMe)-CH2F), the “protection of cells against LeTx” value with RAW 264.7 cells [6] is “most active”.

Take `CC[C@H](C)[C@H](NC(=O)OCc1ccccc1)C(=O)N[C@@H](CCC(=O)OC)C(=O)N[C@H](C(=O)N[C@@H](CC(=O)OC)C(=O)CF)[C@@H](C)O` [inhibitor of caspase 8, Z-IETD-FMK] (Cbz-IE(OMe)TD(OMe)-CH2F): the “protection of cells against LeTx” value with RAW 264.7 cells [6] is “most active”.

`COC(=O)CC[C@H](NC(=O)[C@H](CC(C)C)NC(=O)OCc1ccccc1)C(=O)N[C@@H](Cc1cnc[nH]1)C(=O)N[C@@H](CC(=O)OC)C(=O)CF` [inhibitor of caspase-9, Z-LEHD-FMK] (Cbz-LE(OMe)HD(OMe)-CH2F): the “protection of cells against LeTx” value in the series on RAW 264.7 cells [6] is listed as “unable to protect”. For the molecule `NC[C@@H]1O[C@H](O[C@H]2[C@@H](O)[C@H](O[C@@H]3[C@@H](O)[C@H](N)C[C@H](N)[C@H]3O[C@H]3O[C@H](CN)[C@@H](O)[C@H](O)[C@H]3N)O[C@@H]2CO)[C@H](N)[C@@H](O)[C@@H]1O` [neomycin], in the series with B. anthracis spores [2], the “mice alive after 11 days” value is 100%. For the same molecule, in the series on B. anthracis spores [5], the “survival of mice after 10 days” value is “less than 20%”. Take `CN[C@@H]1C[C@H]2O[C@@](C)([C@@H]1OC)n1c3ccccc3c3c4c(c5c6ccccc6n2c5c31)C(=O)NC4` [staurosporine]: the “mitochondrial transmembrane potential (JC-1 staining)” value in the series on RAW 264.7 cells [7] was “JC-1 staining changes similar to LeTx”. Further, the “fluorescence pattern (YO-PRO-1) of human monocytes” value in series [8] is on record as “fluorescence pattern typical of apoptotic cells”.

As for `COc1ccc(CCN(C)CCCC(C#N)(c2ccc(OC)c(OC)c2)C(C)C)cc1OC` (stereo not drawn) [verapamil], the “survival of mice” value with B. anthracis spores [2] is on record as “dead by 11 days”. For the molecule “GM-CSF: recombinant murine granulocyte-macrophage colony stimulating factor”, in the series with RAW 264.7 cells [9], the “overall cell survival and relative number of apoptotic cells in presence of LeTx” value is reported as “substantially increased”; the “prevention of LeTx-induced apoptosis” value is given as “incapable of preventing apoptosis completely”; the “protection of Raw 264.7 cells from LeTx” value is “partially protected”. For the same molecule, the “effect of murine cytokine on cell lysis by LeTx” value (from here on “effect of murine cytokine”) in the series on RAW 264.7 cells [10] is given as “increased cell survival”. Further, the “Fas expression after stimulation with cytokine” value (shortened to “Fas expression after stimulation”) in series [11] is “greatly increased”. Moreover, the “mice survived after 24 days” value in the series with B. anthracis spores [2] (ip) is listed as 20%. Also, in [12], the toxicity in mice result is “No toxicity”.

Regarding IL-6: cytokine, the “cell viability relative to cells treated with toxin only (MTT)” value with RAW 264.7 cells [13] is given as “increased cell viability”. TNF-α: in the series on RAW 264.7 cells [10], the “effect of murine cytokine” value was “greatly increased cell lysis”. In addition, the “Fas expression after stimulation” value in series [11] is “greatly increased”. With Z-YVAD [inhibitor of caspase 4], the “protection of cells against LeTx” value in the series on RAW 264.7 cells [6] is reported as “most active”. As for trypsin, the “survival of mice” value in the series with B. anthracis spores [2] is “dead by 11 days”.

B1: IL-12: murine interleukin-12 (protein, UniProt P29459 23-219; P29460 23-328, looked up)
Interleukin-12 subunit alpha: RNLPVATPDPGMFPCLHHSQNLLRAVSNMLQKARQTLEFYPCTSEEIDHEDITKDKTSTVEACLPLELTKNESCLNSRETSFITNGSCLASRKTSFMMALCLSSIYEDLKMYQVEFKTMNAKLLMDPKRQIFLDQNMLAVIDELMQALNFNSETVPQKSSLEEPDFYKTKIKLCILLHAFRIRAVTIDRVMSYLNAS
Interleukin-12 subunit beta: IWELKKDVYVVELDWYPDAPGEMVVLTCDTPEEDGITWTLDQSSEVLGSGKTLTIQVKEFGDAGQYTCHKGGEVLSHSLLLLHKKEDGIWSTDILKDQKEPKNKTFLRCEAKNYSGRFTCWWLTTISTDLTFSVKSSRGSSDPQGVTCGAATLSAERVRGDNKEYEYSVECQEDSACPAAEESLPIEVMVDAVHKLKYENYTSSFFIRDIIKPDPPKNLQLKPLKNSRQVEVSWEYPDTWSTPHSYFSLTFCVQVQGKSKREKKDRVFTDKTSATVICRKNASISVRAQDRYYSSSWSEWASVPCS
Consider B1, for which the “effect of murine cytokine” value with RAW 264.7 cells [10] is listed as “without effect”.

B2: IFN-γ: recombinant mouse interferon-gamma (protein, UniProt P01579 24-161, looked up)
Interferon gamma: QDPYVKEAENLKKYFNAGHSDVADNGTLFLGILKNWKEESDRKIMQSQIVSFYFKLFKNFKDDQSIQKSVETIKEDMNVKFFNSNKKKRDDFEKLTNYSVTDLNVQRKAIHELIQVMAELSPAAKTGKRKRSQMLFRG
B2: the “effect of murine cytokine” value in the series with RAW 264.7 cells [10] is reported as “increased cell susceptibility to lysis”. Moreover, the “Fas expression after stimulation” value in series [11] is “greatly increased”.

B3: IL-4: cytokine (protein, UniProt P05112 25-153, looked up)
Interleukin-4: HKCDITLQEIIKTLNSLTEQKTLCTELTVTDIFAASKNTTEKETFCRAATVLRQFYSHHEKDTRCLGATAQQFHRHKQLIRFLKRLDRNLWGLAGLNSCPVKEANQSTLENFLERLKTIMREKYSKCSS
B3: the “cell viability relative to cells treated with toxin only (MTT)” value with RAW 264.7 cells [13] is reported as “increased cell viability”.
